Data as given in ChEMBL document CHEMBL1144596, “Synthesis of O-prenylated and O-geranylated derivatives of 5-benzylidene2,4-thiazolidinediones and evaluation of their free radical scavenging activity as well as effect on some phase II antioxidant/detoxifying enzymes” (Bioorg Med Chem Lett, 2007).

What was measured:
[1] = Inhibition of DPPH radical scavenging activity; type: functional
[2] = species: Mus musculus; assay: Effect on lipid-peroxidation level per protein in Swiss Albino mouse liver; type: functional, organism-based
[3] = species: Mus musculus; assay: Stimulation of GST level in Swiss Albino mouse liver; type: functional
[4] = species: Mus musculus; assay: Stimulation of GSH level per protein in Swiss Albino mouse liver; type: functional
[5] = species: Mus musculus; assay: Stimulation of SOD level per protein in Swiss Albino mouse liver; type: functional
[6] = species: Mus musculus; assay: Stimulation of CAT level per protein in Swiss Albino mouse liver; type: functional
[7] = tested on: Mus musculus; assay: Hepatoprotecting activity in Swiss Albino mouse liver assessed as ALT level at 3 mg/kg, po for 20 days; type: functional
[8] = tested on: Mus musculus; assay: Hepatoprotecting activity in Swiss Albino mouse liver assessed as […] level at 3 mg/kg, po for 20 days; type: functional
[9] = tested on: Mus musculus; assay: Hepatoprotecting activity in Swiss Albino mouse liver assessed as urea level at 3 mg/kg, po for 20 days

For `CC(C)=CCC/C(C)=C\COc1ccc(/C=C2/SC(=O)NC2=O)cc1`, the IC50 [1] was 9.8 µM, the Activity [2] was 0.148 nmol/mg and the Activity [3] was 160.33 nmol/mg/min. It also gave an Activity [4] of 245.32 nmol/mg, an Activity [5] of 70.15 U/mg and an Activity [6] of 22.32 U/mg. The Activity [7] was 6.32 IU/L, the Activity [8] was 32.88 IU/L and the Urea level [9] was 14.69 mg/dL.
`COc1cc(/C=C2/SC(=O)NC2=O)ccc1OCC=C(C)C` showed an IC50 [1] of 17.9 µM.
Compound `CC(C)=CCOc1ccccc1/C=C1/SC(=O)NC1=O` has an IC50 [1] of 43.3 µM.
`CC(C)=CCC/C(C)=C/COc1ccccc1/C=C1/SC(=O)NC1=O` gave an IC50 [1] of 12 µM.
Compound `O=C1NC(=O)/C(=C\c2ccc(O)cc2)S1` has an IC50 [1] of 12 µM.
Work on `COc1cc(/C=C2/SC(=O)NC2=O)ccc1O` yielded an IC50 [1] of 2.49 µM, an Activity [2] of 0.143 nmol/mg and an Activity [3] of 220.8 nmol/mg/min. The Activity [4] was 184.09 nmol/mg, the Activity [5] was 65.45 U/mg and the Activity [6] was 16.85 U/mg. The Activity [7] was 4.8 IU/L, the Activity [8] was 38.1 IU/L and the Urea level [9] was 13.83 mg/dL.
`COc1cc(/C=C2/SC(=O)NC2=O)cc(OC)c1OC/C=C(/C)CCC=C(C)C` gave an IC50 [1] of 32.1 µM.
`Cc1c(C)c2c(c(C)c1O)CC[C@@](C)(CCC[C@H](C)CCC[C@H](C)CCCC(C)C)O2` [ALPHA-TOCOPHEROL] showed an IC50 [1] of 2.3 µM.
In the case of `O=C1NC(=O)/C(=C\c2ccccc2O)S1`, the IC50 [1] is reported as 23.5 µM.
Work on `COc1cc(/C=C2/SC(=O)NC2=O)cc(OC)c1O` yielded an IC50 [1] of 2.85 µM.
Compound `CC(C)=CCOc1ccc(/C=C2/SC(=O)NC2=O)cc1` has an IC50 [1] of over 50 µM.
Work on `COc1cc(/C=C2/SC(=O)NC2=O)ccc1OC/C=C(/C)CCC=C(C)C` yielded an IC50 [1] of 17.6 µM.
`COc1cc(/C=C2/SC(=O)NC2=O)cc(OC)c1OCC=C(C)C` gave an IC50 [1] of 4.08 µM, an Activity [2] of 0.158 nmol/mg and an Activity [3] of 140.54 nmol/mg/min. The Activity [4] was 238.22 nmol/mg, the Activity [5] was 67.45 U/mg and the Activity [6] was 23.97 U/mg. The Activity [7] was 7.3 IU/L, the Activity [8] was 37.99 IU/L and the Urea level [9] was 16.53 mg/dL.
